Assay [1] concerns the target Ba/F3 cells, ABL1 WT (Homo sapiens, UniProt P00519). Kind of assay: 96-well XTT cell survival assay, Ba/F3 ABL1 WT. Format: cell-based. The settings on record: 72 hours, read-out: ABL1 WT XTT [Ba/F3] IC50. The method, boiled down: (§1)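 Ba/F3 cells carrying wild-type or T315I ABL1 were seeded at 5000-8000 per well with graded compound concentrations in duplicate and grown 72 hours at 37° C. Survival was read by XTT/PMS reduction after a further 2-6 h, as absorbance at 405 nm with 650 nm background correction.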

Assay [2] has as its target T1, unphosphorylated T315I Abl kinase domain (Mus musculus, UniProt P00520, T315I).
T1 construct: purified and unphosphorylated T315I Abl kinase domain; made in house; host or cells: E. coli BL21(DE3) (Codon+RIL or pSA0145 strain)
T1 sequence (P00520 242-493 T315I limits assumed): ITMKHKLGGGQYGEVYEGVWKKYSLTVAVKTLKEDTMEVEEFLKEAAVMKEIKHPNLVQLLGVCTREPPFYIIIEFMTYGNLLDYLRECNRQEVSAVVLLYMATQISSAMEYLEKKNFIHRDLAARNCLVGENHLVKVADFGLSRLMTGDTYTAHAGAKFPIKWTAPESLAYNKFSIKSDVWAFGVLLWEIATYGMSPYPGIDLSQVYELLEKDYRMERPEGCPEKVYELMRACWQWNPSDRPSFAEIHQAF
Kind of assay: c-Abl T315I 0P bioassay (pyruvate kinase/lactate dehydrogenase coupled enzyme assay). In kind it is biochemical. The settings on record: zero phosphorylation state (0P), 10 μM ATP, read-out: AbI T315I 0P IC50.

Assay [3] concerns the target Ba/F3 cells, ABL1 T315I (Homo sapiens, UniProt P00519, T315I, cells depend on it). Kind of assay: 96-well XTT cell survival assay, Ba/F3 ABL1 T315I. Format: cell-based. The following applies: 72 hours, read-out: ABL1 T315I XTT [Ba/F3] IC50. The method, boiled down:
as §1

Molecules are shown by their SMILES.

On to `COc1ccccc1-c1c[nH]c2ncc(-c3cccc(C(O)C(=O)N(C)C)n3)cc12` (stereo not drawn), for which the GI50 in assay [1] and in assay [3] was over 1000 nM in each case. Moreover, the half-maximal inhibitory concentration (IC50) in assay [2] is under 50 nM.

Regarding `COc1ccccc1-c1n[nH]c2ncc(-c3cccc(C(O)C(=O)N4CCC(O)CC4)c3)cc12` (stereo not drawn), the GI50 in assay [1] and in assay [3] was over 1000 nM in each case. Further, the IC50 in assay [2] is under 50 nM.

On to `COC(=O)C1=C(C)NC(=O)NC1c1cccc(-c2cnc3[nH]cc(-c4ccccc4OC)c3c2)c1` (stereo not drawn), for which the GI50 in assay [1] and in assay [3] was over 1000 nM in each case. Also, the concentration for half-maximal inhibition (IC50) in assay [2] is under 50 nM.

As for `COc1ccccc1-c1n[nH]c2ncc(-c3cccc(C(O)C(=O)N4CC(O)C4)c3)cc12` (stereo not drawn), the GI50 in assay [1] and in assay [3] was over 1000 nM each time. Further, the half-inhibitory concentration (IC50) in assay [2] was under 50 nM.

`COc1ccccc1-c1c[nH]c2ncc(-c3cccc(C(O)C(=O)N(C)CCN(C)C)n3)cc12` (stereo not drawn): the GI50 in assay [1] and in assay [3] was over 1000 nM each time. Moreover, the IC50 in assay [2] was under 50 nM.

As to `COc1ccccc1-c1c[nH]c2ncc(-c3cccc(C(N)CC(=O)N4CCC[C@@H]4CO)c3)cc12` (stereo partly drawn), the GI50 in assay [1] and in assay [3] was over 1000 nM in each case. In addition, in assay [2], the IC50 was under 50 nM.

Turning to `COc1ccccc1-c1n[nH]c2ncc(-c3cccc(C(O)C(=O)N(C)C4CCS(=O)(=O)C4)c3)cc12` (stereo not drawn), the GI50 was under 1000 nM in assay [1] and over 1000 nM in assay [3]. Also, in assay [2], the concentration for half-maximal inhibition (IC50) is under 50 nM.

In the case of `CC[C@@H]1OCO[C@H]1c1cccc(-c2cnc3[nH]nc(-c4ccccc4OC)c3c2)c1`, the GI50 in assay [1] and in assay [3] was over 1000 nM each time. In addition, the IC50 in assay [2] is under 50 nM.

For `CN(C)C(=O)C(O)c1cncc(-c2cnc3[nH]cc(-c4ccncc4)c3c2)c1` (stereo not drawn), the GI50 in assay [1] and in assay [3] was over 1000 nM throughout. For the same compound, the IC50 in assay [2] was in the range of 50 to 500 nM.

Values taken from US8242280B2, “Fused ring heterocycle kinase modulators” (SGX Pharmaceuticals, Inc., priority 2007, dated 2012).
